Data as given in ChEMBL document CHEMBL4680314, “Discovery of potent glycogen synthase kinase 3/cholinesterase inhibitors with neuroprotection as potential therapeutic agent for Alzheimer's disease” (Bioorg Med Chem, 2021).
The source made the active and inactive calls. The rule behind the calls is not given here.

How the values were obtained:
[1] = Volume of distribution in Sprague-Dawley rat at 5 mg/kg, iv measured upto 24 hrs by LC-MS/MS analysis; assay type: ADME, organism-based; details: in vivo
N2a = test: Effect on tau protein level in mouse N2a cells overexpressing human tau at 0.074 to 6 uM incubated for 6 hrs by Western blot analysis; assay type: functional, cell-based; details: dose 0.074-6 µM
Acetylcholinesterase = Acetylcholinesterase (Homo sapiens, UniProt P22303); test: Inhibition of human recombinant AChE expressed in HEK293 cells using acetylthiocholine iodide as substrate incubated for 10 mins by Ellman's method; assay type: cell-based
Sequence of Acetylcholinesterase (P22303 whole entry): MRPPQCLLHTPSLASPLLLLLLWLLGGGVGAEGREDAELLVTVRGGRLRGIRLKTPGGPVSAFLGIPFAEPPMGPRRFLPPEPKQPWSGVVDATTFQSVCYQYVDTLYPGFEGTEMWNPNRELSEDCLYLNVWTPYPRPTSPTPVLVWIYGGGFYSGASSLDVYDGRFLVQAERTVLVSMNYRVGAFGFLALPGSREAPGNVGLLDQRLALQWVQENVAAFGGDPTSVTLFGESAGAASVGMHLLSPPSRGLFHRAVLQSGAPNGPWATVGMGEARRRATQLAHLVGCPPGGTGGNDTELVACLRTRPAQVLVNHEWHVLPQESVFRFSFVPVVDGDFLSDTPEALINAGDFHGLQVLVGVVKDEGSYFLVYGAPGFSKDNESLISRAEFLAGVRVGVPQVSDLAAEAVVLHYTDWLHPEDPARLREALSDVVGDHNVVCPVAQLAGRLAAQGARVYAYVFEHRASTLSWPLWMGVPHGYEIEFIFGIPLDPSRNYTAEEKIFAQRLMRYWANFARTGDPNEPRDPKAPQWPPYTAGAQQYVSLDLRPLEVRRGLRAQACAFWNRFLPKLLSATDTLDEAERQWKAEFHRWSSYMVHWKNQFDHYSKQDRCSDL

[2] = Tmax in Sprague-Dawley rat at 5 mg/kg, iv measured upto 24 hrs by LC-MS/MS analysis; assay type: ADME, organism-based; details: in vivo
[3] = molecular target: Mitogen-activated protein kinase 9 (Homo sapiens, UniProt P45984); test: Inhibition of JNK2 (unknown origin) by ATP competitive based analysis
Sequence of Mitogen-activated protein kinase 9 (P45984 whole entry): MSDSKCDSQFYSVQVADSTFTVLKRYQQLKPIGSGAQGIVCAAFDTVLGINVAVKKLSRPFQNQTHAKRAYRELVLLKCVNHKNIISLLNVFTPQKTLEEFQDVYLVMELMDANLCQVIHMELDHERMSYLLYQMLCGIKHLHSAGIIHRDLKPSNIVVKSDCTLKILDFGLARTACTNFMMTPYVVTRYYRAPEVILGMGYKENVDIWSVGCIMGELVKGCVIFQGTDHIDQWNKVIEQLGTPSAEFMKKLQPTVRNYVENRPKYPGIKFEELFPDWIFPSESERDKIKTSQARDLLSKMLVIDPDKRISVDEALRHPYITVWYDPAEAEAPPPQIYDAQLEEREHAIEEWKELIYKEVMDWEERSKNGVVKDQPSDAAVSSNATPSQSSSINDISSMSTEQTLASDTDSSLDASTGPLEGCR

[4] = molecular target: Cyclin-dependent kinase 6 (Homo sapiens, UniProt Q00534); test: Inhibition of CDK6 (unknown origin) by ATP competitive based analysis
Sequence of Cyclin-dependent kinase 6 (Q00534 whole entry): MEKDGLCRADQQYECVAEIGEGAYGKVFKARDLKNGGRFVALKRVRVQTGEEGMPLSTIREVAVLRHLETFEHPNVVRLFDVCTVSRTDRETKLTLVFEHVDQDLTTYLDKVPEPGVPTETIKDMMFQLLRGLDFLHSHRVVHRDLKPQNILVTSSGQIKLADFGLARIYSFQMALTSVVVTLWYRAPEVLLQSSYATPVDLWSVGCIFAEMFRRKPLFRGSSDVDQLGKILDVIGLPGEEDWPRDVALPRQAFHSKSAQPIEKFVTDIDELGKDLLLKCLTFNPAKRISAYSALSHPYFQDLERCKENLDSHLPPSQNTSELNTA

Homo sapiens [5] = organism: Homo sapiens; test: Selectivity index, ratio of IC50 for JNK2 (unknown origin) to IC50 for GSK-3 beta (unknown origin) by ATP competitive based analysis
BV-2 [6] = test: Anti-inflammatory activity in mouse BV-2 cells assessed as reduction in LPS-induced IL-1beta production incubated for 1 hr followed by LPS stimulation and measured after 24 hrs by ELISA; assay type: functional, cell-based; details: dose 2-8 µM, time 25.0 hrs
[7] = molecular target: Cyclin-dependent kinase 7 (Homo sapiens, UniProt P50613); test: Inhibition of CDK7 (unknown origin) by ATP competitive based analysis
Sequence of Cyclin-dependent kinase 7 (P50613 whole entry): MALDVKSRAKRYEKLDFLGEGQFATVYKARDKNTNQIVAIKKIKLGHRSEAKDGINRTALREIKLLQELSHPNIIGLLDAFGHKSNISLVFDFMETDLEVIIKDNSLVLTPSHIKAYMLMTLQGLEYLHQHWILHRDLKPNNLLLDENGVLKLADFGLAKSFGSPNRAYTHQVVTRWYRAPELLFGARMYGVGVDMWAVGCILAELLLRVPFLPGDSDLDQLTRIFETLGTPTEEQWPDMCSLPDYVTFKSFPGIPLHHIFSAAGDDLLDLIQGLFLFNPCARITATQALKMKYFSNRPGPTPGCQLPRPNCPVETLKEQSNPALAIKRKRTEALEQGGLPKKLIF

in vitro = details: PAMPA
Description: Effective permeability of compound in PBS/EtOH buffer (7:3) at 25 ug/ml incubated for 18 hrs by PAMPA-BBB assay

Homo sapiens [8] = organism: Homo sapiens; test: Selectivity index, ratio of IC50 for CDK7 (unknown origin) to IC50 for GSK-3 beta (unknown origin) by ATP competitive based analysis
[9] = AUC (0 to 24 hrs) in Sprague-Dawley rat at 5 mg/kg, iv measured upto 24 hrs by LC-MS/MS analysis; assay type: ADME, organism-based; design: route intravenous, dose 5 mg/kg, time <=24; details: in vivo
[10] = molecular target: Cyclin-dependent kinase 4 (Homo sapiens, UniProt P11802); test: Inhibition of CDK4 (unknown origin) by ATP competitive based analysis
Sequence of Cyclin-dependent kinase 4 (P11802 whole entry): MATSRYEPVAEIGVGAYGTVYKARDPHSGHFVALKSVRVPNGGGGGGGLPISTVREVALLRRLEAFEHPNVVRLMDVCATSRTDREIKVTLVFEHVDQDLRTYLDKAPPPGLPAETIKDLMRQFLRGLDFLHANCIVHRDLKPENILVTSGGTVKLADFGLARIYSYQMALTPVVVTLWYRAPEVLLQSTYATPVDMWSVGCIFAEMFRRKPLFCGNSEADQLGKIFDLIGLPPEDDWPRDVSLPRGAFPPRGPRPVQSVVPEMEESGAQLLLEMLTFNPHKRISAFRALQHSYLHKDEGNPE

[11] = Tmax in Sprague-Dawley rat at 10 mg/kg, po measured upto 24 hrs by LC-MS/MS analysis; assay type: ADME, organism-based; details: in vivo
[12] = Ratio of drug level in ICR mouse brain to blood at 15 mg/kg, po measured after 90 mins by LC-MS/MS analysis; assay type: ADME, organism-based; details: 1.5 h
[13] = Cmax in Sprague-Dawley rat at 10 mg/kg, po measured upto 24 hrs by LC-MS/MS analysis; assay type: ADME, organism-based; design: route oral, dose 10 mg/kg, time <=24; details: in vivo
[14] = Volume of distribution in Sprague-Dawley rat at 10 mg/kg, po measured upto 24 hrs by LC-MS/MS analysis; assay type: ADME, organism-based; details: in vivo
BV-2 [15] = test: Anti-inflammatory activity in mouse BV-2 cells assessed as reduction in LPS-induced IL-1beta expression at 4 uM incubated for 1 hr followed by LPS stimulation and measured after 24 hrs by immunofluorescence based laser confocal microscopy; assay type: functional, cell-based; details: time 25.0 hrs
[16] = molecular target: Mitogen-activated protein kinase 11 (Homo sapiens, UniProt Q15759); test: Inhibition of p38MAPK beta (unknown origin) by ATP competitive based analysis
Sequence of Mitogen-activated protein kinase 11 (Q15759 whole entry): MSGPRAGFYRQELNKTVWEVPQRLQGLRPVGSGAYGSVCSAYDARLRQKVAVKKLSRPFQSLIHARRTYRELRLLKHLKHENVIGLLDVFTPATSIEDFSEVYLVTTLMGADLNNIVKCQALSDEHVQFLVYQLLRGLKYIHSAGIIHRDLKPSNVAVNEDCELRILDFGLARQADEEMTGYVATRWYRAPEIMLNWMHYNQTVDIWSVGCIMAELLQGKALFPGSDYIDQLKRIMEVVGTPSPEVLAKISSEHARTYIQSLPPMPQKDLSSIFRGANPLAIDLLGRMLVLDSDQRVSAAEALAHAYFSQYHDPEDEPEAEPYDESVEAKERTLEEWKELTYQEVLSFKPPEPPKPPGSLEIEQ

[17] = Toxicity in ICR mouse model of scopolamine-induced cognitive dysfunction assessed as effect on locomotor activity by measuring effect on swimming speed at 15 mg/kg, po by Morris water maze test; assay type: organism-based; details: in vivo
Homo sapiens [18] = organism: Homo sapiens; test: Selectivity index, ratio of IC50 for p38MAPK alpha (unknown origin) to IC50 for GSK-3 beta (unknown origin) by ATP competitive based analysis
Homo sapiens [19] = organism: Homo sapiens; test: Selectivity index, ratio of IC50 for CDK4 (unknown origin) to IC50 for GSK-3 beta (unknown origin) by ATP competitive based analysis
[20] = MRT (0 to t) in Sprague-Dawley rat at 10 mg/kg, po measured upto 24 hrs by LC-MS/MS analysis; assay type: ADME, organism-based; details: in vivo
[21] = molecular target: Glycogen synthase kinase-3 beta (Homo sapiens, UniProt P49841); test: biochemical
Sequence of Glycogen synthase kinase-3 beta (P49841 whole entry): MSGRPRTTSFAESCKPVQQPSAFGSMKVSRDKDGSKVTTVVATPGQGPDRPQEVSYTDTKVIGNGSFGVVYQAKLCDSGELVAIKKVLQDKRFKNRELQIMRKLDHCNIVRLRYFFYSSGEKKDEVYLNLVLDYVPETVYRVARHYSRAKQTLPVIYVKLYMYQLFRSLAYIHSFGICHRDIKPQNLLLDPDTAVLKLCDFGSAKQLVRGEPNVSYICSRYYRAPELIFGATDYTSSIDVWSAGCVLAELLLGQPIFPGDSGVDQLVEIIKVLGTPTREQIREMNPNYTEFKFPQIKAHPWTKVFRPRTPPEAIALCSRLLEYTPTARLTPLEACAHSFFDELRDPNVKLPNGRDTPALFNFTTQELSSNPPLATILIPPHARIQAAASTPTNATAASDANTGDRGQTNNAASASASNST
Description: Inhibition of recombinant human N-terminal His6-tagged GSK3beta H350L mutant expressed in baculovirus infected Sf21 cells using prephosphorylated polypeptide as substrate incubated for 1 min followed by substrate addition and measured after 30 mins by Kinase-Glo luminescence assay

Mus musculus = test: Cognitive enhancing effect in ICR mouse model of scopolamine-induced cognitive dysfunction assessed as reduction in memory impairment by measuring increase in number of virtual platform crossings at 15 mg/kg, po by Morris water maze test; assay type: functional, organism-based
Homo sapiens [22] = organism: Homo sapiens; test: Selectivity index, ratio of IC50 for p38MAPK gamma (unknown origin) to IC50 for GSK-3 beta (unknown origin) by ATP competitive based analysis
[23] = molecular target: Mitogen-activated protein kinase 14 (Homo sapiens, UniProt Q16539); test: Inhibition of p38MAPK alpha (unknown origin) by ATP competitive based analysis
Sequence of Mitogen-activated protein kinase 14 (Q16539 whole entry): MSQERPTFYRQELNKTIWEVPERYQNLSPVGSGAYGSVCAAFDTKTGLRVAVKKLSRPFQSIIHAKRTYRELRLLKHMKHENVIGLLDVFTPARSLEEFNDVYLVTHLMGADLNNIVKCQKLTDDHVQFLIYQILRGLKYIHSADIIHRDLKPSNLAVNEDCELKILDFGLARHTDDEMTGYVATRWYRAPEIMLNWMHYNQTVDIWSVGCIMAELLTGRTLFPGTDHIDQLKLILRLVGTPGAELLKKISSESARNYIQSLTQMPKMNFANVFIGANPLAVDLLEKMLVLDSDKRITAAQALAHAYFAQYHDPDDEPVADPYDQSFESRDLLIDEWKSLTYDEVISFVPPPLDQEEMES

BV-2 [24] = test: Anti-inflammatory activity in mouse BV-2 cells assessed as reduction in LPS-induced TNFalpha production incubated for 1 hr followed by LPS stimulation and measured after 24 hrs by ELISA; assay type: functional, cell-based; details: dose 2-8 µM, time 25.0 hrs
BV-2 [25] = test: Anti-inflammatory activity in mouse BV-2 cells assessed as reduction in LPS-induced TNFalpha expression at 4 uM incubated for 1 hr followed by LPS stimulation and measured after 24 hrs by immunofluorescence based laser confocal microscopy; assay type: functional, cell-based; details: time 25.0 hrs
Homo sapiens [26] = organism: Homo sapiens; test: Selectivity index, ratio of IC50 for p38MAPK beta (unknown origin) to IC50 for GSK-3 beta (unknown origin) by ATP competitive based analysis
[27] = Clearance in Sprague-Dawley rat at 5 mg/kg, iv measured upto 24 hrs by LC-MS/MS analysis; assay type: ADME, organism-based; details: in vivo
[28] = molecular target: Cyclin-dependent kinase 9 (Homo sapiens, UniProt P50750); test: Inhibition of CDK9 (unknown origin) by ATP competitive based analysis
Sequence of Cyclin-dependent kinase 9 (P50750 whole entry): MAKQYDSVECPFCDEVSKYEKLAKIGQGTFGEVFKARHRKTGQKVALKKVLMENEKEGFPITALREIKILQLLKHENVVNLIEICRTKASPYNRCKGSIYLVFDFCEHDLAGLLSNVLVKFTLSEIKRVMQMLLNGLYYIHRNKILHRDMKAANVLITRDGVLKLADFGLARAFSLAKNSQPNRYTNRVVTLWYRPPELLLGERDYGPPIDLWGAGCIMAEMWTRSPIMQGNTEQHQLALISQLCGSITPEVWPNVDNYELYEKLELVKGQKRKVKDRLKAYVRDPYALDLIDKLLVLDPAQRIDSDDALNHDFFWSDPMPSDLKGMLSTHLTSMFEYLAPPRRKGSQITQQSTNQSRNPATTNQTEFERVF

[29] = Oral bioavailability in Sprague-Dawley rat at 10 mg/kg measured upto 24 hrs by LC-MS/MS analysis; assay type: ADME, organism-based; details: in vivo
[30] = molecular target: Mitogen-activated protein kinase 1 (Homo sapiens, UniProt P28482); test: Inhibition of ERK2 (unknown origin) by ATP competitive based analysis
Sequence of Mitogen-activated protein kinase 1 (P28482 whole entry): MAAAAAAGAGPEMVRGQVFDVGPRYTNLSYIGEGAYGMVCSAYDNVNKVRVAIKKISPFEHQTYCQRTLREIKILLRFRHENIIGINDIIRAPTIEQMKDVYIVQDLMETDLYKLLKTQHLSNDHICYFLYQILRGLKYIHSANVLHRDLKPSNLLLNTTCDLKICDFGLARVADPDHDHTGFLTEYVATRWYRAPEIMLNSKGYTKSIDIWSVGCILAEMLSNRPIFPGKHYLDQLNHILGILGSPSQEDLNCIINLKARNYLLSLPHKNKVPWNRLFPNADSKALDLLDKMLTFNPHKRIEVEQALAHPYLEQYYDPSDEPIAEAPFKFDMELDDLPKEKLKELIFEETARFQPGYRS

[31] = molecular target: Cyclin-dependent kinase 1 (Homo sapiens, UniProt P06493); test: Inhibition of CDK1 (unknown origin) by ATP competitive based analysis
Sequence of Cyclin-dependent kinase 1 (P06493 whole entry): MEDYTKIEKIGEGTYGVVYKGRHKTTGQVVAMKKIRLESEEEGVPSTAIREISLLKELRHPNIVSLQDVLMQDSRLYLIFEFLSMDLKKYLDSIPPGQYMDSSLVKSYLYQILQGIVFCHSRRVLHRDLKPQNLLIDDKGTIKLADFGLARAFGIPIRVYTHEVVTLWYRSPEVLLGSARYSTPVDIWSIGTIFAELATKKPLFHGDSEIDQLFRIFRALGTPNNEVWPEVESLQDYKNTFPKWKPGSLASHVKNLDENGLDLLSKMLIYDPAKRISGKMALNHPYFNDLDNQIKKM

[32] = Drug uptake in mouse BV-2 cells at 25 uM incubated for 1 hr measured per million cells by LC-MS/MS analysis; assay type: ADME, cell-based; details: bv-2, 1 h
BV-2 [33] = test: Anti-inflammatory activity in mouse BV-2 cells assessed as reduction in LPS-induced TNFalpha production at 8 uM incubated for 1 hr followed by LPS stimulation and measured after 24 hrs by ELISA relative to control; assay type: functional; details: time 25 hrs
[34] = molecular target: Mitogen-activated protein kinase 10 (Homo sapiens, UniProt P53779); test: Inhibition of JNK3 (unknown origin) by ATP competitive based analysis
Sequence of Mitogen-activated protein kinase 10 (P53779 whole entry): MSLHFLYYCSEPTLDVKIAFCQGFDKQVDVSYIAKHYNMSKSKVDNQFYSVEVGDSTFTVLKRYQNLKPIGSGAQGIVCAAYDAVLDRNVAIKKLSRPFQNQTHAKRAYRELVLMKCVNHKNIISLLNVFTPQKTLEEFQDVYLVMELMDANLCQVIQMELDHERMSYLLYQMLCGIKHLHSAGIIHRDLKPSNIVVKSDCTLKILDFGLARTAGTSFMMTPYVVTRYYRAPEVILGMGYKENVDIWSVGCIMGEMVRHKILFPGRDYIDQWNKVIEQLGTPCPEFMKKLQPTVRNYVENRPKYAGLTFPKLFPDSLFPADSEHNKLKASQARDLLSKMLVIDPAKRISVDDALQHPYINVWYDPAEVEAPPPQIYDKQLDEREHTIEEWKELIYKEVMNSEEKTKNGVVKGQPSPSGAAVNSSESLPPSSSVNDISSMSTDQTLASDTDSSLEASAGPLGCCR

Homo sapiens [35] = organism: Homo sapiens; test: Selectivity index, ratio of IC50 for ERK1 (unknown origin) to IC50 for GSK-3 beta (unknown origin) by ATP competitive based analysis
[36] = molecular target: Cyclin-dependent kinase 2 (Homo sapiens, UniProt P24941); test: Inhibition of CDK2 (unknown origin) by ATP competitive based analysis

NC(=O)c1sc(-c2ccnc(NC(=O)C3CC3)c2)nc1OCCCC1CCN(Cc2ccc(F)cc2)CC1
Vd [1]: 15.8 L/kg
Activity (N2a): inactive
IC50 (Acetylcholinesterase): 0.31 µM
Tmax [2]: 4.98 min
IC50 [3]: > 0.3 µM
IC50 [4]: > 0.3 µM
Ratio IC50 (Homo sapiens [5]): 200
Activity (BV-2 [6]): Dose-dependent effect
IC50 [7]: > 0.3 µM
Papp at 18 h, 25 ug/ml (in vitro): 84 nm/s
Ratio IC50 (Homo sapiens [8]): 200
AUC(0-t) [9]: 1.96 µg·h/mL
IC50 [10]: > 0.3 µM
Tmax [11]: 4.7 h
Ratio [12]: 21.6 ng/kg
Cmax [13]: 0.132 µg/mL
Vd [14]: 60.7 L/kg
Activity (BV-2 [15]): Active
IC50 [16]: > 0.3 µM
Activity [17]: Non-Toxic
Ratio IC50 (Homo sapiens [18]): 200
Ratio IC50 (Homo sapiens [19]): 200
MRT last at 24 h [20]: 9.9 h
IC50 [21]: 0.003 µM
Activity (Mus musculus): Active
Ratio IC50 (Homo sapiens [22]): 200
IC50 [23]: > 0.3 µM
Activity (BV-2 [24]): Dose-dependent effect
Activity (BV-2 [25]): Active
Ratio IC50 (Homo sapiens [26]): 200
clearance [27]: 2.55 L/h/kg
IC50 [28]: 0.108 µM
bioavailability [29]: 30.3%
IC50 [30]: > 0.3 µM
IC50 [31]: > 0.3 µM
Drug uptake [32]: 722 ng
inhibition at 8 µM (BV-2 [33]): 100%
IC50 [34]: > 0.3 µM
Ratio IC50 (Homo sapiens [35]): 200
IC50 [36]: > 0.3 µM
